# A melting point compilation (Tetko et al.; mined from patent text by program, amines drawn as free bases though some values may be those of a salt)
row,melting point [°C],Structure (SMILES)
1,200 to 201,CCc1cccc(C)c1CNc1cc(C(=O)NCCO)cc2c1nc(C)n2C
2,134 to 136,CN(C)C(=S)N1C=CC=NC1N (stereo not drawn)
3,91,Cc1ccc(Nc2ncc(C=Cc3cccnc3)c3ccccc23)cc1Br
4,58 to 59,C=CCCCCCCCCNC(=O)N(C)O
5,157,CCOC(=O)C1CN(CC)c2nc(SC)ncc2C1=O (stereo not drawn)
6,109 to 110,CC(=O)OC1C(C)=C(C)C(=O)N1c1ccc(Cl)c(Cl)c1 (stereo not drawn)
7,124,COc1ccc(CN(C)CCCOc2cccc(NC(=O)c3cccc4c(=O)c5cccc(OC)c5[nH]c34)c2)cc1OC
8,119 to 120,CCOC(=O)NC(=S)Nc1ccc(C(=O)OC(C)(C)C)cc1
9,117 to 119,Cn1cc(S(=O)(=O)C(F)(F)F)c(-c2ccc(Cl)cc2)c1Cl
10,162 to 163,CC(C)C1(C)NC(c2ccccc2C(=O)O)=NC1=O (stereo not drawn)
11,236 to 241,Cc1ccc(C(=O)n2nc(Nc3cccc(OCC#N)c3)nc2N)cc1
12,125 to 126,Cc1c(-c2cccc(OCc3ccccc3)c2)n(Cc2ccc(OCCN3CCCCC3)cc2)c2ccc(OCc3ccccc3)cc12
13,167,Cc1cc(COc2ccc(C(=O)NC[C@@H](C(=O)NO)N3CCN(Cc4ccc(F)cc4)CC3)cc2)c2ccccc2n1
14,97,CCOC(=O)c1cc2c(F)cccc2nc1Cl
15,115 to 122,CNc1ccc(C(C)(C)c2ccc(C(C)(C)c3ccc(NC)cc3)cc2)cc1
16,187 to 188,Cc1oc(-c2ccccc2)nc1COc1ccc(COc2ccc3ccccc3c2CC(=O)O)cc1
17,104,CCOC(=O)c1cnn(-c2ccc(OCC(C)CC)c(C#N)c2)c1 (stereo not drawn)
18,223 to 225,O=C1CCN(c2cc(Cl)cc3cccnc23)CC1
19,212,CCOCc1nc2c(N)nc3cc(-c4ccc(F)cc4)cnc3c2n1CC1(O)CCCC1
20,179 to 180,COc1cc2cc(C(=O)NO)sc2cc1OC
21,148 to 152,C=C(C)C(=O)N(NC(=O)c1ccccc1)C(C)(C)C
22,75 to 77,Cc1ccc(S(=O)(=O)OC(C)C(=O)N2CCOCC2)cc1 (stereo not drawn)
23,160 to 162,O=S(=O)(CC(F)(F)F)c1nc2cc(F)ccc2[nH]1

row,melting point [°C],Structure (SMILES)
1,155 to 157,COc1cc2c(cc1OC)C(C#N)N(C(=O)c1ccccc1)C=C2 (stereo not drawn)
2,154 to 155,Clc1ccc(-c2cncn3ncnc23)cc1
3,144 to 145,COc1cc(COc2nn(-c3ccccc3)cc2/C=C/c2cncn2C)ccc1OCc1nc(-c2ccco2)oc1C
4,203 to 204,Cc1ncnc(C)c1C(=O)O
5,207,CC1=C(C(=O)OC(C)(C)C)C(c2ccccc2Cl)c2c[nH]nc2N1 (stereo not drawn)
6,72 to 74,CCc1cc(=O)n(-c2cc(OC(C)C)c(Cl)cc2F)c(=O)n1C
7,120 to 122,CC1(C)Cc2nc(N)sc2C(C)(C)C1
8,180,Cc1cc(COc2c(Cl)cc(C=O)cc2Cl)oc(=O)c1
9,216 to 219,O=C1Nc2ccccc2SC1c1ccc(F)cc1 (stereo not drawn)
10,208 to 209,COC(=O)c1ccc(C)c(NC(=O)c2cccc([N+](=O)[O-])c2)c1
11,> 300,Cn1c2cc(Cl)ncc2c(=O)n2nccc12
12,124 to 125,COC(=O)C=C1c2ccccc2C=C(OC)c2sccc21
13,117 to 118,CCOC(=O)/C=C/c1nc(COc2ccc(C=O)cc2OC)c(C)o1
14,174,O=c1c(CCCc2cccnc2)cc2cccnc2n1-c1ccc2nsnc2c1
15,198 to 200,CC(C)(C)c1cc(CCc2ccccc2NC(=O)NC2CCCCC2)cc(C(C)(C)C)c1O
16,147 to 149,C[C@H]1NC(=O)[C@H]1N(NC(=O)OC(C)(C)C)C(=O)OC(C)(C)C
17,124 to 126,CC(C)OC(=O)N1CCC(NC(=O)N2CCn3c(c(C(N)=O)c(C#N)c3C3CCOCC3)C2)CC1
18,223 to 226,COc1cc(Cc2cnc(N)nc2N)cc(-c2cccc(NS(=O)(=O)c3ccc(N)cc3)c2)c1OC
19,132 to 135,O=C(O)c1ccc(OCCc2c(CCNS(=O)(=O)Cc3ccccc3Cl)n(C(c3ccccc3)c3ccccc3)c3ccc(Cl)cc23)cc1F
20,201,CCCCN1CCC(C(=O)O)(S(=O)(=O)c2ccc(Oc3ccc(Cl)cc3)cc2)CC1
21,93 to 96,Cn1c2c(c3ccccc31)CC(OC(=O)c1ccccc1)CC2 (stereo not drawn)
22,78 to 78.5,CCOCc1nc2c(N)nc(C)c(C)c2n1CCOCCCc1cccnc1
23,210 to 212,Cc1ccc(C(=O)n2c3c(c4ccccc42)CC(C(=O)O)CC3)cc1 (stereo not drawn)

row,melting point [°C],Structure (SMILES)
1,72.5,CCCCOc1cc(/C=C(\OC)C(=O)O)ccc1CCCc1ccc(OS(=O)(=O)CCCC)c(OC)c1
2,159 to 160,O=C(c1cccc(Br)c1)C(Br)C(Br)c1cccc(Br)c1 (stereo not drawn)
3,112 to 113,O=C(O)CCc1ccc(O[C@H]2CCc3ccccc32)cc1
4,96 to 98,CSc1c(N)cnc2ccccc12
5,141 to 143,COC(=O)NC(=O)c1ccc(C=NO)cc1C
6,264 to 267,O=C1c2cccc(F)c2-n2c1nc1ccccc1c2=O
7,115 to 117,CCC1c2cccn2-c2ccc(F)cc2N1C(=O)c1cccc(O)c1 (stereo not drawn)
8,134 to 136,CCCOc1nc(N[C@@H](C)Cc2ccccc2)c2cnn(-c3ccccc3)c2n1
9,156 to 158,CC(CCC(F)C(C)(C)O)C1CCC2C3CC=C4CC(O)CC(O)C4(C)C3CCC12C (stereo not drawn)
10,136 to 138,c1csc(-c2cnc(COc3ccc(CCCCn4ccnc4)cc3)o2)c1
11,68 to 71,COC(=O)C1=C(C)NC(C)=C(C(=O)OCCCCCCOc2cc(-c3ccccc3)[nH]n2)C1c1cccc(Cl)c1Cl (stereo not drawn)
12,> 270,CC(C)Cc1c(Cl)sc2[nH]c(=O)c(=O)[nH]c12
13,80 to 81,CCCONC(=O)c1c(Cl)ccc(C(=O)OC)c1Cl
14,118 to 128,CS(=O)(=O)N[C@@H]1CCCC[C@H]1Nc1nc(Nc2ccc3c(c2)CCC(F)(F)CC3)ncc1Cl
15,70 to 75,O=C1c2cc(Cl)ccc2OC(CCCCl)N1O (stereo not drawn)
16,71 to 72,COC(=O)Nc1ccc(Br)c(C)c1
17,172 to 174,CC(C)(C)c1cc(C=C(C#N)C(N)=S)cc(C(C)(C)C)c1
18,174 to 175,OC(c1ccccc1)(c1ccc(Cl)cc1)c1nccn1Cc1ccccc1 (stereo not drawn)
19,64,CCCCc1nc2ccn(CC#N)c(=O)c2n1Cc1ccc(-c2ccccc2C#N)cc1
20,52 to 54,Cc1ncoc1C(O)c1ccco1 (stereo not drawn)
21,155 to 156,Cc1cc(-c2noc(C3CC3)n2)cc(C)c1OCCCc1cc(O)no1
22,212 to 213,COc1cc(N2CCN([C@H]3CC[C@H](c4cn(C)c5ccc(C#N)cc54)CC3)CC2)c2ncccc2c1C

row,Structure (SMILES),melting point [°C]
1,C[Si](C)(C)NC(=O)C(Cl)(Cl)Cl,75 to 85
2,CC(=C(Br)Br)c1cn(-c2c(Cl)cc(C(F)(F)F)cc2Cl)nc1C#N,119 to 122
3,CC(C)NCC(O)COc1cccnc1 (stereo not drawn),84 to 87
4,COCCC1CCN(c2ccc(C#N)c3ccccc23)CC1,95 to 96
5,N[C@H]1Cc2ccccc2[C@@H]1O,104 to 106
